Consider nine molecules from PubChem BioAssay AID256 (DTP/NCI, 2004).

Where “and” joins values, the source holds several entries; their conditions need not be identical. Equal entries are not always repeated. Toxic doses and inconclusive results are not listed.

This experiment concerns CD2F1 mice, L1210 leukemia ip, survival T/C. Kind of experiment: NCI In Vivo Anticancer Drug Screen. Data for tumor model L1210 Leukemia (intraperitoneal) in CD2F1 (CDF1) mice. Particulars: higher = longer survival. Put shortly:
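Antitumor effect is scored in animals hosting a serially transplanted tumor. Values compare compound-dosed animals against vehicle-only controls as a simple quotient.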

[1] abbreviates: endpoint: mean survival time, dose: 100.0 mg/kg/injection, schedule: Q01DX001 (ip), vehicle: saline with Tween-80.
Setting [2] is: endpoint: mean survival time, dose: 200.0 mg/kg/injection, schedule: Q01DX001 (ip), vehicle: saline with Tween-80.
[3] abbreviates: endpoint: mean survival time, dose: 400.0 mg/kg/injection, schedule: Q01DX001 (ip), vehicle: saline with Tween-80.
Where [4] appears, read: endpoint: mean survival time, dose: 100.0 mg/kg/injection, schedule: Q01DX009 (ip), vehicle: saline with Tween-80.
Where [5] appears, read: endpoint: mean survival time, dose: 100.0 mg/kg/injection, schedule: Q04DX002 (ip), vehicle: saline with Tween-80.
Where [6] appears, read: endpoint: mean survival time, dose: 100.0 mg/kg/injection, schedule: Q04DX003 (ip), vehicle: saline with Tween-80.
The mark [7] stands for this setting: endpoint: mean survival time, dose: 200.0 mg/kg/injection, schedule: Q01DX009 (ip), vehicle: saline with Tween-80.
Setting [8] is: endpoint: mean survival time, dose: 200.0 mg/kg/injection, schedule: Q04DX003 (ip), vehicle: saline with Tween-80.
Setting [9] is: endpoint: mean survival time, dose: 400.0 mg/kg/injection, schedule: Q01DX009 (ip), vehicle: saline with Tween-80.
Where [10] appears, read: endpoint: mean survival time, dose: 400.0 mg/kg/injection, schedule: Q04DX003 (ip), vehicle: saline with Tween-80.

Take `C=COCC(C)C` (tested in a mixture with another compound): the T/C (endpoint: mean survival time, dose: 0.78 mg/kg/injection, schedule: Q01DX009 (ip), vehicle: Klucel (hydroxypropylcellulose) (HPC)) is 93 % of control; the T/C (endpoint: mean survival time, dose: 1.56 mg/kg/injection, schedule: Q01DX009 (ip), vehicle: Klucel (hydroxypropylcellulose) (HPC)) is 90 % of control; the T/C (endpoint: mean survival time, dose: 1.56 mg/kg/injection, schedule: Q01DX009 (ip), vehicle: saline with Tween-80) was 86 % of control; the T/C (endpoint: mean survival time, dose: 1.56 mg/kg/injection, schedule: Q04DX003 (ip), vehicle: other) is 109 % of control; the T/C (endpoint: mean survival time, dose: 3.12 mg/kg/injection, schedule: Q01DX009 (ip), vehicle: Klucel (hydroxypropylcellulose) (HPC)) is 88 % of control; the T/C (endpoint: mean survival time, dose: 3.12 mg/kg/injection, schedule: Q04DX003 (ip), vehicle: other) was 91 % of control. Moreover, the T/C is 92 % of control (endpoint: mean survival time, dose: 3.13 mg/kg/injection, schedule: Q01DX009 (ip), vehicle: saline with Tween-80); 98 % of control (endpoint: mean survival time, dose: 4.67 mg/kg/injection, schedule: Q01DX009 (ip), vehicle: Klucel (hydroxypropylcellulose) (HPC)); 94 % of control (endpoint: mean survival time, dose: 6.25 mg/kg/injection, schedule: Q01DX009 (ip), vehicle: saline with Tween-80); 98 % of control (endpoint: mean survival time, dose: 7.09 mg/kg/injection, schedule: Q01DX009 (ip), vehicle: Klucel (hydroxypropylcellulose) (HPC)); 93 % of control (endpoint: mean survival time, dose: 10.6 mg/kg/injection, schedule: Q01DX009 (ip), vehicle: Klucel (hydroxypropylcellulose) (HPC)); 87 % of control (endpoint: mean survival time, dose: 12.5 mg/kg/injection, schedule: Q04DX003 (ip), vehicle: saline with Tween-80). In addition, the T/C is 96 % of control (endpoint: mean survival time, dose: 15.8 mg/kg/injection, schedule: Q01DX009 (ip), vehicle: alcohol); 111 % of control (endpoint: mean survival time, dose: 18.8 mg/kg/injection, schedule: Q01DX009 (ip), vehicle: saline); 88 % of control (endpoint: mean survival time, dose: 24.0 mg/kg/injection, schedule: Q01DX009 (ip), vehicle: alcohol); 97 % of control (endpoint: mean survival time, dose: 35.0 mg/kg/injection, schedule: Q01DX009 (ip), vehicle: alcohol); 111 % of control (endpoint: mean survival time, dose: 37.5 mg/kg/injection, schedule: Q01DX009 (ip), vehicle: saline); 113 % of control under setting [1]. The T/C runs as follows: under setting [2], 109 % of control; under setting [3], 95 % of control.

Turning to `O=C1OCCN1NCc1ccc(Cl)cc1`, the T/C was 88 % of control (endpoint: mean survival time, dose: 12.5 mg/kg/injection, schedule: Q01DX009 (ip), vehicle: DMSO); 93 % of control (endpoint: mean survival time, dose: 25.0 mg/kg/injection, schedule: Q01DX009 (ip), vehicle: DMSO); 89 % of control and 91 % of control (endpoint: mean survival time, dose: 50.0 mg/kg/injection, schedule: Q01DX009 (ip), vehicle: DMSO); 96 % of control (endpoint: mean survival time, dose: 100.0 mg/kg/injection, schedule: Q01DX009 (ip), vehicle: DMSO).

For `Nc1nc2ccc(CSc3ccc(C(=O)NC(CCC(=O)O)C(=O)O)cc3)nc2c(=O)[nH]1` (stereo not given), the T/C (endpoint: mean survival time, dose: 0.5 mg/kg/injection, schedule: Q01DX005 (ip), vehicle: sodium bicarbonate) is 103 % of control and 106 % of control; the T/C (endpoint: mean survival time, dose: 1.0 mg/kg/injection, schedule: Q01DX005 (ip), vehicle: sodium bicarbonate) is 97 % of control and 106 % of control; the T/C (endpoint: mean survival time, dose: 2.0 mg/kg/injection, schedule: Q01DX005 (ip), vehicle: sodium bicarbonate) was 97 % of control and 108 % of control; the T/C (endpoint: mean survival time, dose: 4.0 mg/kg/injection, schedule: Q01DX005 (ip), vehicle: sodium bicarbonate) is 101 % of control and 106 % of control; the T/C (endpoint: mean survival time, dose: 8.0 mg/kg/injection, schedule: Q01DX005 (ip), vehicle: sodium bicarbonate) is 97 % of control and 108 % of control; the T/C (endpoint: mean survival time, dose: 16.0 mg/kg/injection, schedule: Q01DX005 (ip), vehicle: sodium bicarbonate) was 102 % of control and 103 % of control.

For the molecule `CCCCCCCCCC(=O)NC(=S)Nc1c(C)cccc1C`, the T/C is 95 % of control (endpoint: mean survival time, dose: 25.0 mg/kg/injection, schedule: Q01DX001 (ip), vehicle: saline with Tween-80); 95 % of control (endpoint: mean survival time, dose: 50.0 mg/kg/injection, schedule: Q01DX001 (ip), vehicle: saline with Tween-80); 92 % of control under setting [1]; 92 % of control and 109 % of control under setting [4]; 92 % of control and 96 % of control under setting [5]; 98 % of control under setting [6]. For the same molecule, the T/C under setting [2] is 91 % of control and 92 % of control; the T/C under setting [7] was 89 % of control and 98 % of control; the T/C (endpoint: mean survival time, dose: 200.0 mg/kg/injection, schedule: Q04DX002 (ip), vehicle: saline with Tween-80) is 98 % of control and 100 % of control; the T/C under setting [8] is 95 % of control; the T/C under setting [3] was 88 % of control; the T/C under setting [9] is 106 % of control. In addition, the T/C was 91 % of control and 96 % of control (endpoint: mean survival time, dose: 400.0 mg/kg/injection, schedule: Q04DX002 (ip), vehicle: saline with Tween-80); 90 % of control under setting [10].

Regarding `CCc1cccc([N+](=O)[O-])c1CC`, the T/C runs as follows: (endpoint: mean survival time, dose: 25.0 mg/kg/injection, schedule: Q04DX003 (ip), vehicle: saline with Tween-80) 97 % of control; (endpoint: mean survival time, dose: 50.0 mg/kg/injection, schedule: Q04DX003 (ip), vehicle: saline with Tween-80) 95 % of control; under setting [6], 100 % of control and 105 % of control.

As for `O=C(O)CCC(=O)CCC(=O)c1ccccc1`, the T/C (endpoint: mean survival time, dose: 50.0 mg/kg/injection, schedule: Q01DX009 (ip), vehicle: saline with Tween-80) was 96 % of control; the T/C under setting [4] is 98 % of control; the T/C under setting [6] was 91 % of control; the T/C under setting [7] was 98 % of control.

Regarding `Cc1ccc(NC(=O)c2ccccc2Cl)cc1`, the T/C is, setting by setting: under setting [4], 95 % of control; under setting [6], 95 % of control; under setting [7], 92 % of control; under setting [8], 96 % of control; under setting [9], 94 % of control; under setting [10], 93 % of control.

Turning to `CC1(C)N=C(N)N=C(N)N1c1ccc(CCCCc2ccc(S(=O)(=O)F)cc2Cl)c(Cl)c1`, the T/C runs as follows: (endpoint: mean survival time, dose: 2.59 mg/kg/injection, schedule: Q01DX009 (ip), vehicle: Klucel (hydroxypropylcellulose) (HPC)) 105 % of control; (endpoint: mean survival time, dose: 4.32 mg/kg/injection, schedule: Q01DX009 (ip), vehicle: Klucel (hydroxypropylcellulose) (HPC)) 105 % of control; (endpoint: mean survival time, dose: 7.2 mg/kg/injection, schedule: Q01DX009 (ip), vehicle: Klucel (hydroxypropylcellulose) (HPC)) 116 % of control; (endpoint: mean survival time, dose: 7.5 mg/kg/injection, schedule: Q01DX009 (ip), vehicle: Klucel (hydroxypropylcellulose) (HPC)) 100 % of control; (endpoint: mean survival time, dose: 12.5 mg/kg/injection, schedule: Q01DX009 (ip), vehicle: saline with Tween-80) 117 % of control; (endpoint: mean survival time, dose: 15.0 mg/kg/injection, schedule: Q01DX009 (ip), vehicle: Klucel (hydroxypropylcellulose) (HPC)) 104 % of control. Moreover, the T/C runs as follows: (endpoint: mean survival time, dose: 30.0 mg/kg/injection, schedule: Q01DX009 (ip), vehicle: Klucel (hydroxypropylcellulose) (HPC)) 113 % of control; (endpoint: mean survival time, dose: 50.0 mg/kg/injection, schedule: Q04DX003 (ip), vehicle: saline) 103 % of control; (endpoint: mean survival time, dose: 60.0 mg/kg/injection, schedule: Q01DX009 (ip), vehicle: Klucel (hydroxypropylcellulose) (HPC)) 115 % of control; (endpoint: mean survival time, dose: 75.0 mg/kg/injection, schedule: Q04DX003 (ip), vehicle: saline) 104 % of control; under setting [4], 97 % of control; (endpoint: mean survival time, dose: 110.0 mg/kg/injection, schedule: Q04DX003 (ip), vehicle: saline) 121 % of control and 105 % of control. Moreover, the T/C is, setting by setting: (endpoint: mean survival time, dose: 133.0 mg/kg/injection, schedule: Q04DX003 (ip), vehicle: saline with Tween-80) 158 % of control; (endpoint: mean survival time, dose: 300.0 mg/kg/injection, schedule: Q04DX003 (ip), vehicle: saline with Tween-80) 107 % of control; (endpoint: median survival time, dose: 27.0 mg/kg/injection, schedule: Q01DX009 (ip), vehicle: saline with Tween-80) 156 % of control; (endpoint: median survival time, dose: 40.0 mg/kg/injection, schedule: Q01DX009 (ip), vehicle: saline with Tween-80) 156 % of control and 162 % of control; (endpoint: median survival time, dose: 60.0 mg/kg/injection, schedule: Q01DX009 (ip), vehicle: saline with Tween-80) 158 % of control; (endpoint: median survival time, dose: 90.0 mg/kg/injection, schedule: Q01DX009 (ip), vehicle: saline with Tween-80) 168 % of control. The T/C runs as follows: (endpoint: median survival time, dose: 200.0 mg/kg/injection, schedule: Q04DX003 (ip), vehicle: saline with Tween-80) 167 % of control; (endpoint: median survival time, dose: 225.0 mg/kg/injection, schedule: Q04DX003 (ip), vehicle: saline with Tween-80) 164 % of control.

Regarding `CSc1ncnc2c1C[P+](Cc1ccccc1)(c1ccccc1)CC2` (stereo not given), the T/C by setting is: (endpoint: mean survival time, dose: 25.0 mg/kg/injection, schedule: Q04DX002 (ip), vehicle: saline with Tween-80) 101 % of control; (endpoint: mean survival time, dose: 50.0 mg/kg/injection, schedule: Q04DX002 (ip), vehicle: saline with Tween-80) 101 % of control; under setting [5], 101 % of control.
